Where “and” joins values, the source holds several entries; their conditions need not be identical. Equal values may be shown once. Calls of active or inactive are those of the source. Where only a bound is given, the exact number is not on record here.

We go through three molecules from ChEMBL document CHEMBL1201862, “PubChem BioAssay data set” (2004).

One assay concerns the target T1, Leucine aminopeptidase (Plasmodium falciparum 3D7, UniProt Q8IL11).
T1 sequence (Q8IL11 whole entry): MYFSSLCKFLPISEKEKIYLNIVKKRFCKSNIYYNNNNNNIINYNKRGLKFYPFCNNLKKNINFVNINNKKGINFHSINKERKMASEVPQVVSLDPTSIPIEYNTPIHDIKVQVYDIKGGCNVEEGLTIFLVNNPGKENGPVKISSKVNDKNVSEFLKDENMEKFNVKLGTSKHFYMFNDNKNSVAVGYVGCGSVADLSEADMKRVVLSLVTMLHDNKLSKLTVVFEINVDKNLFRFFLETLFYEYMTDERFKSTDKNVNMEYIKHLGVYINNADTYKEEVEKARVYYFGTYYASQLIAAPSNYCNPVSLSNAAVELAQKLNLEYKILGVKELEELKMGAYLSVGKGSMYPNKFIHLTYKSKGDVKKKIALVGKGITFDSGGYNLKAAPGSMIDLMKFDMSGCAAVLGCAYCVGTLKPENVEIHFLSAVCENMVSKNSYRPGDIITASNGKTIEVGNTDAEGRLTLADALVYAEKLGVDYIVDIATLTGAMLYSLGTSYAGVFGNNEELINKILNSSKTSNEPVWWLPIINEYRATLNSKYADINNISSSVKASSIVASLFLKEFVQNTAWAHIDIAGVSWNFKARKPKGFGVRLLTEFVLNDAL
Description: P. falciparum M17LAP inhibitors, primary screen, biochemical, fluorogenic H-Leu-NHMec substrate, 1536-well (AID 1619). The class given is functional.

The target of the next assay is Aspartyl aminopeptidase (Plasmodium falciparum 3D7, UniProt Q8I2J3). The assay can be described thus: Counterscreen for inhibitors of M1 and M17 aminopeptidases: QFRET-based biochemical high throughput dose response assay for inhibitors of the Plasmodium falciparum M18 Aspartyl Aminopeptidase (PFM18AAP). [Related PubChem assays: 1619 (Screening assay (M17LAP inhibitors).), 1445 (Screening assay (M1AAP inhibitors).)].

In a further assay the target is Procathepsin L (Homo sapiens, UniProt P07711). Description: cathepsin L inhibitors, dose response, counter-screen for M1/M17 aminopeptidase inhibitor project, biochemical, QFRET, 1536-well (AID 2214). Background: The purpose of a counterscreen is to sort out artefacts and off-target activity.
In assay [1] the target is T2, Heat shock factor protein 1 (Mus musculus, UniProt P38532).
T2 sequence (P38532 whole entry): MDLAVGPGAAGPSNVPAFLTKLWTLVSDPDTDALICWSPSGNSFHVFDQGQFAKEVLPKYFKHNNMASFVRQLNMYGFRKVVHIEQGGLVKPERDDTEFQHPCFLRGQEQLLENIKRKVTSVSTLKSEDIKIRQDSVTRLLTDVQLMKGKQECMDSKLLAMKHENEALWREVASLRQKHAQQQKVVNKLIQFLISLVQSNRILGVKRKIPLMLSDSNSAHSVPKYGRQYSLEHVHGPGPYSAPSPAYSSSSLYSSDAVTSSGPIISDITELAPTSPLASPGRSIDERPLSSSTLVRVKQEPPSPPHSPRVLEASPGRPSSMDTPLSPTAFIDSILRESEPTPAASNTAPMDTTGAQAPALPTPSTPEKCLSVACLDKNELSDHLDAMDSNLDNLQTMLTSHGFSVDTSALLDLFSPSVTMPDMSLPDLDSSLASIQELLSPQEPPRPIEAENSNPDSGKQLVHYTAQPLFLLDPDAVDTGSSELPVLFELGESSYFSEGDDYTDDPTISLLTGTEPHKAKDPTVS
Description: HSF1 potentiators in luciferase reporter cells, confirmation, cell-based, NIH3T3, luminescence, dose retest (AID 435004).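 Note: stress induced by proteasome inhibitor MG132 added 30 min after compound; luciferase reporter driven by HSF1 response element in NIH3T3 cells; actives raise luminescence as potentiators of the MG132 stress response.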 Format: functional. In general terms: A reporter such as luciferase makes a cellular process visible.

The target in assay [2] is T3, Replicative DNA helicase DnaB (Mycobacterium tuberculosis, UniProt P9WMR3).
T3 sequence (P9WMR3 whole entry): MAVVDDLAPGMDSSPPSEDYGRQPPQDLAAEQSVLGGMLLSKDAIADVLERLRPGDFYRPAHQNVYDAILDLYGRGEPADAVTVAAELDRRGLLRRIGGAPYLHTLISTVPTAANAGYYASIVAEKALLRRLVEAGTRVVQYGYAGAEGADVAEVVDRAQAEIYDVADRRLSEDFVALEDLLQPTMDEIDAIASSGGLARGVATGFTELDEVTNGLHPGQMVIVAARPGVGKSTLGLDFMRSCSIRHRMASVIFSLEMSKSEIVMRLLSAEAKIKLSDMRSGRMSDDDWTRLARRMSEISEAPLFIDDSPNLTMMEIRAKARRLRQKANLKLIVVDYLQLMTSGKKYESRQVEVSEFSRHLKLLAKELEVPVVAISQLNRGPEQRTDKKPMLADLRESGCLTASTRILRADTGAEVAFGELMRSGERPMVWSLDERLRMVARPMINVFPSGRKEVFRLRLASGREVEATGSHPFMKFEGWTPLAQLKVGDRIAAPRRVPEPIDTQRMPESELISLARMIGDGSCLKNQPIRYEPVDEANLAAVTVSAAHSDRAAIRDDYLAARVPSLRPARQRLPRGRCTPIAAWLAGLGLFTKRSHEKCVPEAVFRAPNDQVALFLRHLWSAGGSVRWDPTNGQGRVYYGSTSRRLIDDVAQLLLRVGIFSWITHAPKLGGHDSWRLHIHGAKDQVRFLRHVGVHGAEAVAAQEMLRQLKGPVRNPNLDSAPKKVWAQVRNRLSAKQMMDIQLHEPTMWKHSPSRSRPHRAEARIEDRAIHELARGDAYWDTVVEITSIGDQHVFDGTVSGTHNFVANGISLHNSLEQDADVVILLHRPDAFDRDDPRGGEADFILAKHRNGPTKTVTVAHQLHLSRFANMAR
Description: DnaB intein splicing inhibitors, dose response, biochemical, cell-free fluorescence (AID 449749). Format: functional.

The next assay has as its target T4, Protein RecA (Mycobacterium tuberculosis, UniProt P9WHJ3).
T4 sequence (P9WHJ3 whole entry): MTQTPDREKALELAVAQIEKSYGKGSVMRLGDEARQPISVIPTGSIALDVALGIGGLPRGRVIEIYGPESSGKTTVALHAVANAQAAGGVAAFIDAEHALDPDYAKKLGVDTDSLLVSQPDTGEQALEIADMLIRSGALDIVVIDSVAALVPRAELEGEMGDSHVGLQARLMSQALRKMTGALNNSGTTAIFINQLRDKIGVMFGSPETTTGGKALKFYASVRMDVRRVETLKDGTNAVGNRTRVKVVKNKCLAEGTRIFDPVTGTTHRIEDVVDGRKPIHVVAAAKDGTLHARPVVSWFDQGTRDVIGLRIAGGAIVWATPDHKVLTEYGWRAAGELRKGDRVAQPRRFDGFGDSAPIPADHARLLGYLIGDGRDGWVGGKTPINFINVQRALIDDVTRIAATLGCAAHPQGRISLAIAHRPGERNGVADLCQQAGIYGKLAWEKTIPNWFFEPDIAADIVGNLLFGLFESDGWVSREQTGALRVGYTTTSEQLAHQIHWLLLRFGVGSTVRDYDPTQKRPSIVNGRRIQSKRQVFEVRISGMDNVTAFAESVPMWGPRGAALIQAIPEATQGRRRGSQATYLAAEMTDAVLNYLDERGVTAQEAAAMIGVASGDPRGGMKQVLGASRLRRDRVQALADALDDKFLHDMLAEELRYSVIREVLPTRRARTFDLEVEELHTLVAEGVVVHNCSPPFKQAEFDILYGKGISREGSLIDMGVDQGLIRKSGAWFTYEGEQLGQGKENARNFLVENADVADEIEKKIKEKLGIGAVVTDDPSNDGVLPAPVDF
Description: Fluorescence Cell-Free Homogeneous Dose Retest to Identify Inhibitors of RecA-Intein Splicing Activity. [Related pubchem assays (depositor defined):AID2097, AID2223, AID489010, AID492950]. Format: functional.

The target in assay [3] is T5, Bcl-2-related protein A1 (Mus musculus, UniProt Q07440).
T5 sequence (Q07440 whole entry): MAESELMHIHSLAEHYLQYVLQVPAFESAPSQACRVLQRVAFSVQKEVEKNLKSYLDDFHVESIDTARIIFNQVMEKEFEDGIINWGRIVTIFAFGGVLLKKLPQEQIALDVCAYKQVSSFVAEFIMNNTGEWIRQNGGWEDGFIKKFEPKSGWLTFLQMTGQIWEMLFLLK
Description: Bfl-1 inhibitors, primary screen, biochemical, fluorescence polarization, FITC-Bid, mouse (AID 432).

In assay [4] the target is Glyceraldehyde-3-phosphate dehydrogenase (Homo sapiens, UniProt P04406).
The nature of assay [5]: cytotoxicity in HPDE-C7 cells, cell-based, fluorescence, HTS (AID 430). Format: functional. Conditions: Homo sapiens.
Assay [6] deals with T5, Bcl-2-related protein A1. The assay can be described thus: Bfl-1 inhibitors blocking BH3 peptide binding, confirmation, biochemical, TR-FRET, mouse Bfl-1 (AID 621).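 Note: TR-FRET binding of GST-Bfl-1 to FITC-labelled Bid peptide via terbium antibody.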
The nature of assay [7]: cytotoxicity in KRAS-transformed pancreatic duct cells, primary screen, cell-based, fluorescence, HTS (AID 431).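 Note: cell line used: HPDE-C7K.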 Conditions: Homo sapiens. The class given is functional.
In assay [8] the target is T5, Bcl-2-related protein A1. Description: Bfl-1 binding inhibitors, SAR follow-up, biochemical, fluorescence polarization (AID 1070). Background: Fluorescence polarisation rises when a labelled molecule tumbles more slowly, as on binding a larger partner.
Another assay relates to CHO. Description: cytotoxicity in TLR9-MyD88 CHO cells, dose response, cytotoxicity control for TLR9-MyD88 binding inhibitor project, cell-based, luminescence (AID 588339).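 Note: CHO cells stably coexpressing TLR9 and MyD88 fusions from primary screen; compound exposure lasted 48 hours before viability readout.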 Conditions: Cricetulus griseus. Format: functional, hamster.
For a further assay, the target named is Beta Lactamase (Pseudomonas aeruginosa, UniProt Q932Y6). The assay can be described thus: beta-lactamase reporter inhibitor potency, dose response, artefact control for TLR9-MyD88 binding inhibitor project, BLA reporter cells, FRET fluorescence (AID 588341).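 Note: cell based assay in CHO-K1 cells stably expressing beta-lactamase.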 Format: cell-based.
Assay [9] can be described thus: Shn3 3'UTR reporter inhibitors, dose response, cell-based, Clone20 osteoblasts, firefly luciferase, cherry-picked (AID 624132).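 Note: firefly luciferase luminescence from reporter carrying the Shn3 3'UTR in osteoblasts.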 Format: functional.
Assay [10] can be described thus: HepG2 cell cytotoxicity, dose response, cytotoxicity control for Shn3 inhibitor project, CellTiter-Glo, cherry-picked (AID 624134). The class given is functional, cell-based.
Assay [11] can be described thus: control 3'UTR Renilla luciferase suppression, dose response, counter-screen for Shn3 inhibitor project, cell-based, Clone20-Shn3RL, cherry-picked (AID 624133). Format: functional.
The nature of assay [12]: NIH-3T3 fibroblast cytotoxicity, dose response, cytotoxicity control, cell-based, fluorescence, Alamar Blue, secondary assay (AID 2327).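 Note: NIH-3T3 mouse fibroblasts cultured with fluconazole at 8 µg/mL.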 Format: functional.
Assay [13] is described as follows: C. albicans growth with fluconazole, confirmation, fluorescence, retest (AID 2467). Format: functional, cell-based.
A short description of assay [14]: inhibitors of intracellular T. cruzi replication, confirmation, NIH3T3 host cells, beta-gal luminescence (AID 2044).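 Note: intracellular parasites grown in NIH/3T3 mouse fibroblasts as host cells; luminescent beta-galactosidase reporter signal from transgenic T. cruzi replicating inside host cells; inhibitors lower the luminescence signal.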 Format: functional, cell-based.
The nature of assay [15]: growth suppression of PTEN-null colon cells, dose response, cell-based, HCT116 PTEN knockout (AID 1047).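 Note: HCT116 colon tumor cells with PTEN knocked out; cells exposed to compound for 60 hours before readout; potency for loss of cell viability measured by luminescence.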 The class given is functional.
The nature of assay [16]: Luminescence Cell-Based Dose Confirmation HTS to Identify Inhibitors of Polyadenylation. The class given is functional.
Assay [17] can be described thus: cytotoxicity toward NIH3T3 fibroblasts, dose response, counter-screen, cell-based, ATP luminescence, mouse fibroblasts (AID 2010).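 Note: cells exposed to compound for about 90 hours before reading.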 Format: functional.
A short description of assay [18]: growth suppression of beta-catenin-knockout colon cells, dose response, cell-based, HCT116, human colon tumor (AID 1045).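 Note: HCT116 colon tumor cells with beta catenin knocked out; cells exposed to compound for 60 hours.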 The class given is functional.
Assay [19] can be described thus: Counterscreen for AddAB inhibitors: absorbance-based bacterial cell-based high throughput dose response assay for inhibitors of bacterial viability. [Related pubchem assays (depositor defined):AID435030, AID449728, AID449731, AID488942, AID488955, AID488956]. Format: functional.
A further assay deals with INS1. Description: beta cell apoptosis inhibitors, cytokine rescue, dose response, luminescence, retest (AID 449756).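 Note: cell death triggered by IL-1 beta plus TNF-alpha plus IFN-gamma mixture; protective hits raise ATP signal compared with cytokine alone wells.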 The class given is functional, cell-based. The settings on record: Rattus norvegicus.

Sequence of Aspartyl aminopeptidase (Q8I2J3 whole entry): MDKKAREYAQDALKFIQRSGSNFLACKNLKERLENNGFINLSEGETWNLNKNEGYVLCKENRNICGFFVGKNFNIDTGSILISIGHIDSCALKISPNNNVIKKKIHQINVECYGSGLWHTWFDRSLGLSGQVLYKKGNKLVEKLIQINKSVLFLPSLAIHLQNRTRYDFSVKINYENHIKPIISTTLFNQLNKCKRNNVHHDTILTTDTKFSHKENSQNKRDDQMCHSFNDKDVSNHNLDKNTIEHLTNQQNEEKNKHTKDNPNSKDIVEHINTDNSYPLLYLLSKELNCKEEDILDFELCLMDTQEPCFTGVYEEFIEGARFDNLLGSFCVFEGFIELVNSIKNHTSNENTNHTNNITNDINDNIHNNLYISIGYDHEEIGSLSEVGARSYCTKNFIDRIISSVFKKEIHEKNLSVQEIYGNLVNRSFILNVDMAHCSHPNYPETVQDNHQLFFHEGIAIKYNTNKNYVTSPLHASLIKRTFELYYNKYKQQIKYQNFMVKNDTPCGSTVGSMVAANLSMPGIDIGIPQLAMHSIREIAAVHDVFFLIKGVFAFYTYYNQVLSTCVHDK
Sequence of Beta Lactamase (Q932Y6 whole entry): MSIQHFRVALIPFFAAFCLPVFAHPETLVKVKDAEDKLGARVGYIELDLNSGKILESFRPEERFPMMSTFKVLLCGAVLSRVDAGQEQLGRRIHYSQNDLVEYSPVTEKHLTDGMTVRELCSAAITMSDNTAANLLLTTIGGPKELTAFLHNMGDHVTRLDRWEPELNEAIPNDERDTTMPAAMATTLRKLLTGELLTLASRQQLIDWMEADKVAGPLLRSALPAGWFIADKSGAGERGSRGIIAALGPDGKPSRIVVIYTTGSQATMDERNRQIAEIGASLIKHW
Sequence of Glyceraldehyde-3-phosphate dehydrogenase (P04406 whole entry): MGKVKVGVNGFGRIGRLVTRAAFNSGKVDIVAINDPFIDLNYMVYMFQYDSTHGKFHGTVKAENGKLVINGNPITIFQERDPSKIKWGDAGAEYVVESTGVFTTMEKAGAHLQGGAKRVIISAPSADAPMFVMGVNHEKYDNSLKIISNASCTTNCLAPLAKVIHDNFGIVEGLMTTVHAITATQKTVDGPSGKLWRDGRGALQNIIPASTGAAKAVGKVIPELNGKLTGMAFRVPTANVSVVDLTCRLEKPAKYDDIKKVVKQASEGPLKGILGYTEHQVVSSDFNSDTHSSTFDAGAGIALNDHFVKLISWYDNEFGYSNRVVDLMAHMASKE
Sequence of Procathepsin L (P07711 whole entry): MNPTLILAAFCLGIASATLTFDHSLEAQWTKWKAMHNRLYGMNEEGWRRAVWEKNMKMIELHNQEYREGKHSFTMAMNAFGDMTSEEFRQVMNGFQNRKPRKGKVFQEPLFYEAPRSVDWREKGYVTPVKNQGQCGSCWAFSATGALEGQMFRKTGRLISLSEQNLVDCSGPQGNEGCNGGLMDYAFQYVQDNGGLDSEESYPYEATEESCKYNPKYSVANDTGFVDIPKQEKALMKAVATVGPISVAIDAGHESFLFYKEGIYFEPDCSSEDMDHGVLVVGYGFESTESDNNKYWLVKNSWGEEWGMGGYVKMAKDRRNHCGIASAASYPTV

The IC50 is the concentration that gives 50% inhibition. As a reminder, the EC50 is the midpoint of the concentration-response curve. Usually AC50 stands for the midpoint of the concentration-response curve, whichever way the signal moves. On to `Oc1cc(-c2ccc(Cl)c(Cl)c2)[nH]n1`, for which the IC50 at Leucine aminopeptidase is < 1 µM (active); against Aspartyl aminopeptidase it was > 73.5 µM (not active); against Procathepsin L, > 59.6 µM (not active). Further, the EC50 in assay [1] is > 260 µM (inactive); at Protein RecA it was 0.852 µM (active). Further, the AC50 in assay [2] was 2.01 µM (active).
In the case of `CCOC(=O)CS(=O)(=O)c1nc(-c2ccc(F)cc2)cc(C(F)(F)F)n1`, the IC50 on Bcl-2-related protein A1 [3] is 3.78 µM (active); in assay [4] it was > 100 µM (not active); at Bcl-2-related protein A1 [6] it was 3.41 µM (active) and 1.46 µM (active); on Bcl-2-related protein A1 [8], 2.16 µM (active); with CHO, 2.88 µM (active); at Beta Lactamase, 14.4 µM (inactive). Besides, the EC50 in [5] was 9.29 µM (active); in [7], 6.05 µM (active); on Protein RecA, 3.3 µM (active). In addition, the AC50 was 3.35 µM (active) in assay [2], 1.78 µM (active) in [9], 20.9 µM (active) in [10] and 6.97 µM (active) in assay [11].
Turning to `Cc1ccc2[nH]c(/C(C#N)=C\c3ccc([N+](=O)[O-])o3)nc2c1`, the EC50 in assay [12] was 3.01 µM (inconclusive); in assay [13] it was 0.387 µM (active); in assay [14] it was 0.604 µM (active); in [15], 1.02 µM (active); in assay [16], 5.85 µM (active); in [17] it was > 60 µM (not active). In assay [18], the EC50 was 1.04 µM (active). Further, the IC50 in assay [19] is > 119 µM (inactive). Moreover, in the assay on INS1, the AC50 was 1.92 µM (active).
